Assay results as given in patent US20100298141A1, “SUBSTITUTED PYRIDINE N-OXIDE HERBICIDES” (E. I. DU PONT DE NEMOURS AND COMPANY, priority 2007, published 2010).

Legend:
woolly cupgrass = experiment: Test C pre-/postemergence test; format: in vivo, Eriochloa villosa; settings: for Plant response rating, Cupgrass, Woolly: 31 g ai/ha, scale 0 to 100 (0 no effect, 100 complete control)
How it was run: (§1)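 Compounds in a non-phytotoxic solvent with surfactant applied preemergence to seeded pots and, at the same time, postemergence to plants 2–18 cm tall (1- to 4-leaf stage). Paddy tests: pots flooded to 3 cm, compound applied into the water, depth held throughout.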

catchweed bedstraw = experiment: Test C pre-/postemergence test; format: in vivo, Galium aparine; settings: for Plant response rating, Galium: 31 g ai/ha, scale 0 to 100 (0 no effect, 100 complete control)
How it was run: as §1

crabgrass = experiment: Test A pre-/postemergence greenhouse test; format: in vivo, Digitaria sanguinalis; settings: for Crabgrass, Large plant response rating: 0 to 100 scale; for Plant response rating, Crabgrass, Large: 0 to 100 scale where 0 is no effect and 100 is complete control
How it was run: (§2)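 Planting was into mixed loam soil and sand; preemergence treatment followed as a directed soil spray. Concurrently, emerged plants (one- to two-leaf, 2–10 cm) received postemergence applications of identically formulated compound (non-phytotoxic solvent, surfactant). After approximately ten days under greenhouse conditions, injury was judged by eye against untreated plants.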

blackgrass = experiment: Test C pre-/postemergence test; format: in vivo, Alopecurus myosuroides; settings: for Plant response rating, Blackgrass: 31 g ai/ha, scale 0 to 100 (0 no effect, 100 complete control)
How it was run: as §1

Surinam grass = experiment: Test C pre-/postemergence test; format: in vivo, Brachiaria decumbens; settings: for Plant response rating, Surinam Grass: 31 g ai/ha, scale 0 to 100 (0 no effect, 100 complete control)
How it was run: as §1

lambsquarters = experiment: Test C pre-/postemergence test; format: in vivo, Chenopodium album; settings: for Plant response rating, Lambsquarters: 31 g ai/ha, scale 0 to 100 (0 no effect, 100 complete control)
How it was run: as §1

barnyardgrass [1] = experiment: Test C flooded paddy test; format: in vivo, Echinochloa crus-galli; settings: Flood
How it was run: (§3)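 Ratings were visual and made relative to untreated controls after 13 to 15 greenhouse days.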

velvetleaf [2] = experiment: Test A pre-/postemergence greenhouse test; format: in vivo, Abutilon theophrasti; settings: for Velvetleaf plant response rating: 0 to 100 scale; for Plant response rating, Velvetleaf: 0 to 100 scale where 0 is no effect and 100 is complete control
How it was run: as §2

soybean = experiment: Test C pre-/postemergence test; format: in vivo, Glycine max; settings: for Plant response rating, Soybean: 31 g ai/ha, scale 0 to 100 (0 no effect, 100 complete control)
How it was run: as §1

downy brome = experiment: Test C pre-/postemergence test; format: in vivo, Bromus tectorum; settings: for Plant response rating, Bromegrass, Downy: 31 g ai/ha, scale 0 to 100 (0 no effect, 100 complete control)
How it was run: as §1

common ragweed = experiment: Test C pre-/postemergence test; format: in vivo, Ambrosia elation; settings: for Plant response rating, Ragweed: 31 g ai/ha, scale 0 to 100 (0 no effect, 100 complete control)
How it was run: as §1

green foxtail = experiment: Test C pre-/postemergence test; format: in vivo, Setaria viridis; settings: for Plant response rating, Foxtail, Green: 31 g ai/ha, scale 0 to 100 (0 no effect, 100 complete control)
How it was run: as §1

duck salad = experiment: Test C flooded paddy test; format: in vivo, Heteranthera limosa; settings: Flood
How it was run: as §3

giant foxtail = experiment: Test A pre-/postemergence greenhouse test; format: in vivo, Setaria faberi; settings: for Foxtail, Giant plant response rating: 0 to 100 scale; for Plant response rating, Foxtail, Giant: 0 to 100 scale where 0 is no effect and 100 is complete control
How it was run: as §2

pigweed = experiment: Test C pre-/postemergence test; format: in vivo, Amaranthus retroflexus; settings: for Plant response rating, Pigweed: 31 g ai/ha, scale 0 to 100 (0 no effect, 100 complete control)
How it was run: as §1

velvetleaf [3] = experiment: Test C pre-/postemergence test; format: in vivo, Abutilon theophrasti; settings: for Plant response rating, Velvetleaf: 31 g ai/ha, scale 0 to 100 (0 no effect, 100 complete control)
How it was run: as §1

barnyardgrass [4] = experiment: Test A pre-/postemergence greenhouse test; format: in vivo, Echinochloa crus-galli; settings: for Barnyardgrass plant response rating: 0 to 100 scale; for Plant response rating, Barnyardgrass: 0 to 100 scale where 0 is no effect and 100 is complete control
How it was run: as §2

[5] = 62 g ai/ha, Preemergence, scale 0 to 100
[6] = Postemergence, 125 g ai/ha, 0 is no effect, 100 is complete control
[7] = Postemergence, 500 g ai/ha, 0 is no effect, 100 is complete control
[8] = Preemergence, 125 g ai/ha, 0 no effect, 100 complete control
[9] = preemergence, 125 g ai/ha, scale 0 (no effect) to 100 (complete control)
[10] = 31 g ai/ha, scale 0 to 100 (0 no effect, 100 complete control)
[11] = 62 g ai/ha, scale 0 to 100, 0 no effect, 100 complete control, 13 to 15 days
[12] = 125 g ai/ha, scale 0 to 100, 0 no effect, 100 complete control, 13 to 15 days
[13] = 250 g ai/ha, scale 0 to 100, 0 no effect, 100 complete control, 13 to 15 days
[14] = 125 g ai/ha, preemergence, scale 0 (no effect) to 100 (complete control)
[15] = preemergence, 250 g ai/ha, scale 0 (no effect) to 100 (complete control)

Cc1cc[n+]([O-])c(S(=O)(=O)Cc2c(C(F)(F)F)nn(C)c2OCC(F)(F)F)c1 [Compound 31]
Cupgrass, Woolly plant response rating (woolly cupgrass; [5]): 100 | Plant response rating, Cupgrass, Woolly (woolly cupgrass; Preemergence): 95 | Plant response rating (0 to 100), Cupgrass, Woolly (woolly cupgrass; Preemergence, 250 g ai/ha): 100 | Galium plant response rating (catchweed bedstraw; [5]): 100 | Plant response rating, Galium (catchweed bedstraw; Preemergence): 100 | Plant response rating (0 to 100), Galium (catchweed bedstraw; Preemergence, 250 g ai/ha): 100 | Crabgrass, Large plant response rating (crabgrass; [6]): 70 | Crabgrass, Large plant response rating (crabgrass; [7]): 80 | Crabgrass, Large plant response rating (crabgrass; [8]): 90 | Plant response rating, Crabgrass, Large (crabgrass; Preemergence, 500 g ai/ha): 100 | Blackgrass plant response rating (blackgrass; [5]): 80 | Plant response rating, Blackgrass (blackgrass; Preemergence): 60 | Plant response rating (0 to 100), Blackgrass (blackgrass; Preemergence, 250 g ai/ha): 100 | Blackgrass plant response rating (blackgrass; [9]): 100 | Surinam Grass plant response rating (Surinam grass; [5]): 100 | Plant response rating, Surinam Grass (Surinam grass; Preemergence): 85 | Lambsquarters plant response rating (lambsquarters; [5]): 95 | Plant response rating, Lambsquarters (lambsquarters; Preemergence): 80 | Plant response rating, Barnyardgrass (barnyardgrass [1]; [10]): 0 | Plant response rating, Barnyardgrass (barnyardgrass [1]; [11]): 0 | Plant response rating, Barnyardgrass (barnyardgrass [1]; [12]): 30 | Plant response rating, Barnyardgrass (barnyardgrass [1]; [13]): 75 | Velvetleaf plant response rating (velvetleaf [2]; [6]): 50 | Velvetleaf plant response rating (velvetleaf [2]; [7]): 60 | Velvetleaf plant response rating (velvetleaf [2]; [8]): 30 | Plant response rating, Velvetleaf (velvetleaf [2]; Preemergence, 500 g ai/ha): 90 | Soybean plant response rating (soybean; [5]): 15 | Plant response rating, Soybean (soybean; Preemergence): 10 | Bromegrass, Downy plant response rating (downy brome; [5]): 50 | Plant response rating, Bromegrass, Downy (downy brome; Preemergence): 0 | Plant response rating (0 to 100), Bromegrass, Downy (downy brome; Preemergence, 250 g ai/ha): 80 | Bromegrass, Downy plant response rating (downy brome; [9]): 70 | Ragweed plant response rating (common ragweed; [5]): 10 | Plant response rating, Ragweed (common ragweed; Preemergence): 0 | Foxtail, Green plant response rating (green foxtail; [5]): 100 | Plant response rating, Foxtail, Green (green foxtail; Preemergence): 100 | Plant response rating, Ducksalad (duck salad; [10]): 45 | Plant response rating, Ducksalad (duck salad; [11]): 45 | Plant response rating, Ducksalad (duck salad; [12]): 80 | Plant response rating, Ducksalad (duck salad; [13]): 90 | Foxtail, Giant plant response rating (giant foxtail; [6]): 80 | Foxtail, Giant plant response rating (giant foxtail; [7]): 90 | Foxtail, Giant plant response rating (giant foxtail; [8]): 100 | Plant response rating, Foxtail, Giant (giant foxtail; Preemergence, 500 g ai/ha): 100 | Pigweed plant response rating (pigweed; [5]): 100 | Plant response rating, Pigweed (pigweed; Preemergence): 100 | Velvetleaf plant response rating (velvetleaf [3]; [5]): 100 | Plant response rating, Velvetleaf (velvetleaf [3]; Preemergence): 55 | Barnyardgrass plant response rating (barnyardgrass [4]; [6]): 70 | Barnyardgrass plant response rating (barnyardgrass [4]; [7]): 90 | Barnyardgrass plant response rating (barnyardgrass [4]; [8]): 100 | Plant response rating, Barnyardgrass (barnyardgrass [4]; Preemergence, 500 g ai/ha): 100

CC(c1c(C(F)(F)F)nn(CC(F)(F)F)c1Cl)[S+]([O-])c1cccc[n+]1[O-] (centres unmarked) [Compound 46]
Cupgrass, Woolly plant response rating (woolly cupgrass; [5]): 80 | Cupgrass, Woolly plant response rating (woolly cupgrass; [14]): 95 | Plant response rating, Cupgrass, Woolly (woolly cupgrass; Preemergence): 80 | Cupgrass, Woolly plant response rating (woolly cupgrass; [15]): 95 | Galium plant response rating (catchweed bedstraw; [5]): 0 | Galium plant response rating (catchweed bedstraw; [14]): 85 | Plant response rating, Galium (catchweed bedstraw; Preemergence): 0 | Galium plant response rating (catchweed bedstraw; [15]): 90 | Plant response rating, Crabgrass, Large (crabgrass; Postemergence, 125 g ai/ha): 70 | Crabgrass, Large plant response rating (crabgrass; [7]): 80 | Crabgrass, Large plant response rating (crabgrass; [8]): 70 | Plant response rating, Crabgrass, Large (crabgrass; Preemergence, 500 g ai/ha): 100 | Blackgrass plant response rating (blackgrass; [5]): 100 | Blackgrass plant response rating (blackgrass; [14]): 100 | Plant response rating, Blackgrass (blackgrass; Preemergence): 70 | Blackgrass plant response rating (blackgrass; [15]): 100 | Surinam Grass plant response rating (Surinam grass; [5]): 85 | Surinam Grass plant response rating (Surinam grass; [14]): 100 | Plant response rating, Surinam Grass (Surinam grass; Preemergence): 85 | Surinam Grass plant response rating (Surinam grass; [15]): 100 | Lambsquarters plant response rating (lambsquarters; [5]): 90 | Lambsquarters plant response rating (lambsquarters; [14]): 100 | Plant response rating, Lambsquarters (lambsquarters; Preemergence): 0 | Lambsquarters plant response rating (lambsquarters; [15]): 100 | Plant response rating, Barnyardgrass (barnyardgrass [1]; [11]): 10 | Plant response rating, Barnyardgrass (barnyardgrass [1]; [13]): 60 | Plant response rating, Velvetleaf (velvetleaf [2]; Postemergence, 125 g ai/ha): 30 | Velvetleaf plant response rating (velvetleaf [2]; [7]): 40 | Velvetleaf plant response rating (velvetleaf [2]; [8]): 0 | Plant response rating, Velvetleaf (velvetleaf [2]; Preemergence, 500 g ai/ha): 50 | Soybean plant response rating (soybean; [5]): 0 | Soybean plant response rating (soybean; [14]): 0 | Plant response rating, Soybean (soybean; Preemergence): 0 | Soybean plant response rating (soybean; [15]): 25 | Bromegrass, Downy plant response rating (downy brome; [5]): 0 | Bromegrass, Downy plant response rating (downy brome; [14]): 10 | Plant response rating, Bromegrass, Downy (downy brome; Preemergence): 0 | Bromegrass, Downy plant response rating (downy brome; [15]): 15 | Ragweed plant response rating (common ragweed; [5]): 0 | Ragweed plant response rating (common ragweed; [14]): 5 | Plant response rating, Ragweed (common ragweed; Preemergence): 0 | Ragweed plant response rating (common ragweed; [15]): 60 | Foxtail, Green plant response rating (green foxtail; [5]): 98 | Foxtail, Green plant response rating (green foxtail; [14]): 100 | Plant response rating, Foxtail, Green (green foxtail; Preemergence): 95 | Foxtail, Green plant response rating (green foxtail; [15]): 100 | Plant response rating, Ducksalad (duck salad; [11]): 10 | Plant response rating, Ducksalad (duck salad; [13]): 20 | Plant response rating, Foxtail, Giant (giant foxtail; Postemergence, 125 g ai/ha): 70 | Foxtail, Giant plant response rating (giant foxtail; [7]): 80 | Foxtail, Giant plant response rating (giant foxtail; [8]): 90 | Plant response rating, Foxtail, Giant (giant foxtail; Preemergence, 500 g ai/ha): 100 | Pigweed plant response rating (pigweed; [5]): 90 | Pigweed plant response rating (pigweed; [14]): 100 | Plant response rating, Pigweed (pigweed; Preemergence): 0 | Pigweed plant response rating (pigweed; [15]): 100 | Velvetleaf plant response rating (velvetleaf [3]; [5]): 0 | Velvetleaf plant response rating (velvetleaf [3]; [14]): 0 | Plant response rating, Velvetleaf (velvetleaf [3]; Preemergence): 0 | Velvetleaf plant response rating (velvetleaf [3]; [15]): 60 | Plant response rating, Barnyardgrass (barnyardgrass [4]; Postemergence, 125 g ai/ha): 70 | Barnyardgrass plant response rating (barnyardgrass [4]; [7]): 80 | Barnyardgrass plant response rating (barnyardgrass [4]; [8]): 80 | Plant response rating, Barnyardgrass (barnyardgrass [4]; Preemergence, 500 g ai/ha): 100
